Molecular target: T1, F508del (Homo sapiens, UniProt P13569, DEL508-508)
T1 construct: expressed in transfected cells
Assay: Protocol 2: FRET membrane potential optical assay (VIPR), identification of correction compounds
Type: cell-based
Details: F508del CFTR modulator activity; compounds of Table 1; read-out: EC30
Method in brief: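 NIH3T3 mouse fibroblasts stably expressing F508del-CFTR incubated with compound 16 h at 37 °C in serum-free medium, then loaded with CC2-DMPE/DiSBAC2(3) FRET dyes. Channel activated with 10 μM forskolin plus 20 μM genistein in Cl⁻-free (gluconate) bath; depolarisation from Cl⁻ efflux read on VIPR II.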

T1 sequence (P13569 with tags, fused parts or gaps DEL508-508): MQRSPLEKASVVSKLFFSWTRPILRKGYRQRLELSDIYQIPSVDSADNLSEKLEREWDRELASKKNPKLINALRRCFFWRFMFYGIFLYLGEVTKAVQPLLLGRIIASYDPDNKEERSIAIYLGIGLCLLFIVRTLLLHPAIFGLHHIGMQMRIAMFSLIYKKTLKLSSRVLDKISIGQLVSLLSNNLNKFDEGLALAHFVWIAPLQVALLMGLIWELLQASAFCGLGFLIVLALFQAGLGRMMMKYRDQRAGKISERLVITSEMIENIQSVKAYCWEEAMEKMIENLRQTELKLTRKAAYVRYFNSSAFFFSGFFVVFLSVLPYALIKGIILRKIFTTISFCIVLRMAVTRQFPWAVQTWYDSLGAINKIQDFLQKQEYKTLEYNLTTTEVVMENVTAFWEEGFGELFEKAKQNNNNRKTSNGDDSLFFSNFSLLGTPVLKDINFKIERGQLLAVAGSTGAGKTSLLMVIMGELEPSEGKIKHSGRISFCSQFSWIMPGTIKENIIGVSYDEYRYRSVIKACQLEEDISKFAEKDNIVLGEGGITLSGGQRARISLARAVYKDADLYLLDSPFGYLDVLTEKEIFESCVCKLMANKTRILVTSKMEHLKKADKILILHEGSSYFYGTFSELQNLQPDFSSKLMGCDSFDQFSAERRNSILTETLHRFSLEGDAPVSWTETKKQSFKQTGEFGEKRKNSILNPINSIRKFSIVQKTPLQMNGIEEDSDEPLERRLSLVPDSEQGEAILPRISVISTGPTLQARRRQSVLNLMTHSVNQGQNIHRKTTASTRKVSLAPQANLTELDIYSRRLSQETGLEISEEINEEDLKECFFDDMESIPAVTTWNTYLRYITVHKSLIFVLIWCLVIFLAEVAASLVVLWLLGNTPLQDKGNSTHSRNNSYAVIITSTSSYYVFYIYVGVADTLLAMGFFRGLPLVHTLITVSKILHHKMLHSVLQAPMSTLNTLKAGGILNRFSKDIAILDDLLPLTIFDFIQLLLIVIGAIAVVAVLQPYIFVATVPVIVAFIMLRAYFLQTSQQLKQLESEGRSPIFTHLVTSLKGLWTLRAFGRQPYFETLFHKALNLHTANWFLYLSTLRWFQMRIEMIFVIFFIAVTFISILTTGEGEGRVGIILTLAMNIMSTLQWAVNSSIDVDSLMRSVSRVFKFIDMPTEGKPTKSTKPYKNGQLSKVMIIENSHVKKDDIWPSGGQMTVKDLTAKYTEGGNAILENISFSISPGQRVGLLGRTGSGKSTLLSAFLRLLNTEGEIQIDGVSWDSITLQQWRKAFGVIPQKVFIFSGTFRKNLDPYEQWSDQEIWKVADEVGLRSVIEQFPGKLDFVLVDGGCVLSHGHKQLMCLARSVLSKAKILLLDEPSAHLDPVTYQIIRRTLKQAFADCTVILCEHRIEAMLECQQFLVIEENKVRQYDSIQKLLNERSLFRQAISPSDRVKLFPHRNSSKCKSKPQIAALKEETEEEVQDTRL

Row | Structure (SMILES) | EC30 [µM]
1 | CCCCOc1cccc(S(=O)(=O)NC(=O)c2cccnc2N2CC(C)CC2(C)C)n1 (centres unmarked) [Compound 2167, N-[(6-butoxy-2-pyridyl)sulfonyl]-2-(2,2,4-trimethylpyrrolidin-1-yl)pyridine-3-carboxamide] | < 3
2 | Cc1cc(-c2ccc(C(=O)NS(=O)(=O)c3cccc(N)n3)c(N3C[C@@H](C)CC3(C)C)n2)cnc1OC(C)C [Compound 2170, N-[(6-amino-2-pyridyl)sulfonyl]-6-(6-isopropoxy-5-methyl-3-pyridyl)-2-[(4S)-2,2,4-trimethylpyrrolidin-1-yl]pyridine-3-carboxamide] | < 3
3 | CC(C)COc1cc(F)cc(-c2ccc(C(=O)NS(=O)(=O)c3cccc(N)n3)c(N3CCCC(C)(C)CC3)n2)c1 [Compound 2171, N-[(6-amino-2-pyridyl)sulfonyl]-2-(4,4-dimethylazepan-1-yl)-6-(3-fluoro-5-isobutoxy-phenyl)pyridine-3-carboxamide] | < 3
4 | CC(C)c1ccccc1-c1ccc(C(=O)NS(=O)(=O)c2cccnc2N)c(N2C[C@@H](C)CC2(C)C)n1 [Compound 2172, N-[(2-amino-3-pyridyl)sulfonyl]-6-(2-isopropylphenyl)-2-[(4S)-2,2,4-trimethylpyrrolidin-1-yl]pyridine-3-carboxamide] | < 3
5 | Cc1ccc(O)c(-c2ccc(C(=O)NS(=O)(=O)c3ccc[nH]c3=O)c(N3C[C@@H](C)CC3(C)C)n2)c1 [Compound 2174, 6-(2-hydroxy-5-methyl-phenyl)-N-[(2-oxo-1H-pyridin-3-yl)sulfonyl]-2-[(4S)-2,2,4-trimethylpyrrolidin-1-yl]pyridine-3-carboxamide] | 3 to 10
6 | Cc1ccccc1-c1ccc(C(=O)NS(=O)(=O)c2ccc[nH]c2=O)c(N2C[C@@H](C)CC2(C)C)n1 [Compound 2176, 6-(o-tolyl)-N-[(2-oxo-1H-pyridin-3-yl)sulfonyl]-2-[(4S)-2,2,4-trimethylpyrrolidin-1-yl]pyridine-3-carboxamide] | < 3
7 | CC1CN(c2ncc(-c3cccc(C(C)(C)C)c3)cc2C(=O)NS(=O)(=O)c2cccc(N)n2)C(C)(C)C1 (centres unmarked) [Compound 2180, N-[(6-amino-2-pyridyl)sulfonyl]-5-(3-tert-butylphenyl)-2-(2,2,4-trimethylpyrrolidin-1-yl)pyridine-3-carboxamide] | < 3
8 | C[C@@H]1CN(c2nc(-c3cccc(Cl)c3)ccc2C(=O)NS(=O)(=O)c2cccnc2N)C(C)(C)C1 [Compound 2183, N-[(2-amino-3-pyridyl)sulfonyl]-6-(3-chlorophenyl)-2-[(4S)-2,2,4-trimethylpyrrolidin-1-yl]pyridine-3-carboxamide] | < 3
9 | C[C@@H]1CN(c2nc(-c3cccc(C#N)c3)ccc2C(=O)NS(=O)(=O)c2ccc[nH]c2=O)C(C)(C)C1 [Compound 2185, 6-(3-cyanophenyl)-N-[(2-oxo-1H-pyridin-3-yl)sulfonyl]-2-[(4S)-2,2,4-trimethylpyrrolidin-1-yl]pyridine-3-carboxamide] | 3 to 10
10 | COc1ccc(F)cc1-c1ccc(C(=O)NS(=O)(=O)c2cccnc2N)c(N2C[C@@H](C)CC2(C)C)n1 [Compound 2189, N-[(2-amino-3-pyridyl)sulfonyl]-6-(5-fluoro-2-methoxy-phenyl)-2-[(4S)-2,2,4-trimethylpyrrolidin-1-yl]pyridine-3-carboxamide] | < 3

Further lines, results first:

Row | EC30 [µM] | Structure (SMILES)
11 | < 3 | COc1cccc(CNc2cccc(S(=O)(=O)NC(=O)c3cccnc3N3CC(C)CC3(C)C)n2)c1 (centres unmarked) [Compound 2168, N—[[6-[(3-methoxyphenyl)methylamino]-2-pyridyl]sulfonyl]-2-(2,2,4-trimethylpyrrolidin-1-yl)pyridine-3-carboxamide]
12 | < 3 | CC1CN(c2ncccc2C(=O)NS(=O)(=O)c2cccc(OCc3ccc4c(c3)OCO4)n2)C(C)(C)C1 (centres unmarked) [Compound 2169, N—[[6-(1,3-benzodioxol-5-ylmethoxy)-2-pyridyl]sulfonyl]-2-(2,2,4-trimethylpyrrolidin-1-yl)pyridine-3-carboxamide]
13 | < 3 | CC1CN(c2ncccc2C(=O)NS(=O)(=O)c2cccc(OC3CCC(C(C)C)CC3)n2)C(C)(C)C1 (centres unmarked) [Compound 2173, N—[[6-(4-isopropylcyclohexoxy)-2-pyridyl]sulfonyl]-2-(2,2,4-trimethylpyrrolidin-1-yl)pyridine-3-carboxamide]
14 | 3 to 10 | CC1CN(c2ncccc2C(=O)NS(=O)(=O)c2cccc(N3CCN(Cc4ccncc4)CC3)n2)C(C)(C)C1 (centres unmarked) [Compound 2175, N—[[6-[4-(4-pyridylmethyl)piperazin-1-yl]-2-pyridyl]sulfonyl]-2-(2,2,4-trimethylpyrrolidin-1-yl)pyridine-3-carboxamide]
15 | < 3 | CC1CN(c2ncccc2C(=O)NS(=O)(=O)c2cccc(Oc3cc(Cl)cc(C#N)c3)n2)C(C)(C)C1 (centres unmarked) [Compound 2177, N—[[6-(3-chloro-5-cyano-phenoxy)-2-pyridyl]sulfonyl]-2-(2,2,4-trimethylpyrrolidin-1-yl)pyridine-3-carboxamide]
16 | < 3 | COc1ccc(OC)c(Nc2cccc(S(=O)(=O)NC(=O)c3cccnc3N3CC(C)CC3(C)C)n2)c1 (centres unmarked) [Compound 2179, N—[[6-(2,5-dimethoxyanilino)-2-pyridyl]sulfonyl]-2-(2,2,4-trimethylpyrrolidin-1-yl)pyridine-3-carboxamide]
17 | < 3 | CC1CN(c2ncccc2C(=O)NS(=O)(=O)c2cccc(OCc3cccs3)n2)C(C)(C)C1 (centres unmarked) [Compound 2181, N—[[6-(2-thienylmethoxy)-2-pyridyl]sulfonyl]-2-(2,2,4-trimethylpyrrolidin-1-yl)pyridine-3-carboxamide]
18 | < 3 | CC1CN(c2ncccc2C(=O)NS(=O)(=O)c2cccc(OCc3ccc(Cl)cc3F)n2)C(C)(C)C1 (centres unmarked) [Compound 2182, N—[[6-[(4-chloro-2-fluoro-phenyl)methoxy]-2-pyridyl]sulfonyl]-2-(2,2,4-trimethylpyrrolidin-1-yl)pyridine-3-carboxamide]
19 | < 3 | Cc1cccc(-c2cnc(N3CC(C)CC3(C)C)c(C(=O)NS(=O)(=O)c3cccc(N)n3)c2)c1 (centres unmarked) [Compound 2184, N-[(6-amino-2-pyridyl)sulfonyl]-5-(m-tolyl)-2-(2,2,4-trimethylpyrrolidin-1-yl)pyridine-3-carboxamide]
20 | < 3 | CC1CN(c2ncccc2C(=O)NS(=O)(=O)c2cccc(O[C@@H](C)c3ccccc3)n2)C(C)(C)C1 (stereo partly drawn) [Compound 2186, N—[[6-[(1S)-1-phenylethoxy]-2-pyridyl]sulfonyl]-2-(2,2,4-trimethylpyrrolidin-1-yl)pyridine-3-carboxamide]
21 | < 3 | CC1CN(c2ncccc2C(=O)NS(=O)(=O)c2cccc(NCc3ccc(C(C)C)cc3)n2)C(C)(C)C1 (centres unmarked) [Compound 2187, N—[[6-[(4-isopropylphenyl)methylamino]-2-pyridyl]sulfonyl]-2-(2,2,4-trimethylpyrrolidin-1-yl)pyridine-3-carboxamide]
22 | < 3 | CC1CN(c2ncccc2C(=O)NS(=O)(=O)c2cccc(OCC3CCC3)n2)C(C)(C)C1 (centres unmarked) [Compound 2188, N—[[6-(cyclobutylmethoxy)-2-pyridyl]sulfonyl]-2-(2,2,4-trimethylpyrrolidin-1-yl)pyridine-3-carboxamide]
23 | < 3 | CC1CN(c2ncccc2C(=O)NS(=O)(=O)c2cccc(Nc3ccc4c(c3)OCCO4)n2)C(C)(C)C1 (centres unmarked) [Compound 2190, N—[[6-(2,3-dihydro-1,4-benzodioxin-6-ylamino)-2-pyridyl]sulfonyl]-2-(2,2,4-trimethylpyrrolidin-1-yl)pyridine-3-carboxamide]

From patent US10758534B2 (Vertex Pharmaceuticals Incorporated, priority 2014, dated 2020)
